Test results reported in patent US6488912B1, “Treatment of dentoalveolar infections with taurolidine and/or taurultam” (Ed. Geistlich Soehne AG fuer Chemische Industrie, priority 1992, dated 2002).

Tests used:
[1] = test system: human desmodontal fibroblasts; settings: cited from earlier work
dentoalveolar infections = test: Controlled clinical trial, taurolidine vs conventional therapy, all 6 indications pooled: target variables; type: in vivo, patients
Description: (§1) The in-vivo tests were carried out at the Clinic for Maxillofacial Surgery, Munich University between 1989 and 1992. In accordance with modern biometric principles the study was planned as a controlled clinical trial, i.e. it was conducted according to a prospective, protective, randomized, monocentre and simple blind design.
The following 6 indications examined were selected specifically on the basis of their incidence and clinical relevance.
(§2) The test substances investigated were 4 different galenic presentation forms of the active component taurolidine and 4 conventional finished pharmaceuticals.
(§3) For each of the 6 indications investigated an exact therapeutic procedure was fixed. The surgical management was carried out according to the individual situation in the usual manner. Tables 1 and 2 show the antimicrobial therapy regimens defined for patient groups A (Taurolidine group) and B (Standard group). It is evident, that the only difference, with the same quantity of substance applied in the same form, was the choice of preparation.
(§4) For critical examination of the effectiveness of the different pharmaceuticals concerning therapeutic success and total treatment time clinical parameters reflecting the progress of recovery were controlled and documented at every session. The following 6 target variables were defined and evaluated by a uniform scale (0=none to 4=very strong):
(§5) The score-level 5 (total) was given at the moment of complete remission and describes consequently the final point of treatment.
(§6) 200 cases were treated in each indication group, the total number amounted to 1,200. The distribution into the two therapy regimens was realised by random sampling. Statistical evaluations were made by means of testing methods described in customary literature.

[2] = test system: Alveolitis sicca dolorose; test: Controlled clinical trial, total treatment time to complete remission: alveolitis; type: in vivo, patients; settings: TAUR: T-Irrigation fluid 3% + T-Dental emulsion 3%, STANDARD: NaCl 0.9% + AUREOMYCIN Ointment 3%, n=100 per group
Description: as §1, §2, §3, §4, §5, §6

Infection Prophylaxis = test: Controlled clinical trial, total treatment time to complete remission: infection prophylaxis; type: in vivo, patients; settings: TAUR: T-Dental gel 2%, STANDARD: CHLORHEXAMED Dental gel 1%, n=100 per group
Description: as §1, §2, §3, §4, §5, §6

Gangrene = test: Controlled clinical trial, total treatment time to complete remission: gangrene; type: in vivo, patients; settings: TAUR: T-Irrigation fluid 3% + T-Liquid gel 3%, STANDARD: H2O2 3% + CHKM Solution, n=100 per group
Description: as §1, §2, §3, §4, §5, §6

Parodontitis marginalis = test: Controlled clinical trial, total treatment time to complete remission: parodontitis; type: in vivo, patients; settings: TAUR: T-Liquid gel 3% + T-Dental emulsion 3%, STANDARD: DONTISOLON Ointment M, n=100 per group
Description: as §1, §2, §3, §4, §5, §6

Pericoronitis = test: Controlled clinical trial, total treatment time to complete remission: pericoronitis; type: in vivo, patients; settings: TAUR: T-Irrigation fluid 3% + T-Dental emulsion 3%, STANDARD: NaCl 0.9% + AUREOMYCIN Ointment 3%, n=100 per group
Description: as §1, §2, §3, §4, §5, §6

Abscess = test: Controlled clinical trial, total treatment time to complete remission: abscess; type: in vivo, patients; settings: TAUR: T-Irrigation fluid 3% + T-Dental emulsion 3%, STANDARD: NaCl 0.9% + AUREOMYCIN Ointment 3%, n=100 per group
Description: as §1, §2, §3, §4, §5, §6

[3] = background statement; cited from earlier work
[4] = all 6 indications, n=600 per group, maximum
[5] = all 6 indications, n=600 per group, mean
[6] = all 6 indications, n=600 per group, minimum

In the case of `[H]/N=C(\N/C(=N/[H])NCCCCCCNC(=N)NC(=N)Nc1ccc(Cl)cc1)Nc1ccc(Cl)cc1` [Chlorhexidine], the cell damage [1] is listed as “accelerated ageing and a cytopathological effect”.
For `O=S1(=O)CCN(CN2CCS(=O)(=O)NC2)CN1` [TAUR, taurolidine], the “PAIN TIME, Maximum” value (dentoalveolar infections; [4]) was 14 days, the “PERCUSSION TIME, Maximum” value (dentoalveolar infections; [4]) was 13 days and the “PRESSURE PAIN TIME, Maximum” value (dentoalveolar infections; [4]) was 15 days. The “SECRETION TIME, Maximum” value (dentoalveolar infections; [4]) was 15 days, the “SWELLING TIME, Maximum” value (dentoalveolar infections; [4]) was 14 days and the “PERCUSSION TIME, Mean” value (dentoalveolar infections; [5]) was 1.9 days. For the same molecule, the “PRESSURE PAIN TIME, Mean” value (dentoalveolar infections; [5]) was 5.3 days, the “SECRETION TIME, Mean” value (dentoalveolar infections; [5]) was 3.9 days and the “SWELLING TIME, Mean” value (dentoalveolar infections; [5]) was 4.5 days. The “PAIN TIME, Minimum” value (dentoalveolar infections; [6]) was 1 days, the “PERCUSSION TIME, Minimum” value (dentoalveolar infections; [6]) was 1 days and the “PRESSURE PAIN TIME, Minimum” value (dentoalveolar infections; [6]) was 1 days. For the same molecule, the “SECRETION TIME, Minimum” value (dentoalveolar infections; [6]) was 1 days, the “SWELLING TIME, Minimum” value (dentoalveolar infections; [6]) was 1 days and the “effectiveness against standard therapy (more rapid recovery)” value (dentoalveolar infections; all 6 indications, p<0.0001) was “superior effectiveness”. For the same molecule, the “side effects after application” value (dentoalveolar infections; during the acute period of inflammation) was “slight pain for some minutes after application”, the “optional antibiotics and analgetics required/administered” value (dentoalveolar infections; taurolidine group vs standard group, p=0.007 resp. p=0.01) was “significantly less” and the “pain-free earlier than under conventional treatment (average)” value (dentoalveolar infections; taurolidine vs conventional treatment) was 2 days. The “ALVEOLITIS, total treatment TIME (remission), Maximum” value ([2]; maximum) was 15 days, the “ALVEOLITIS, total treatment TIME (remission), Mean” value ([2]; mean) was 5.6 days and the “ALVEOLITIS, total treatment TIME (remission), Minimum” value ([2]; minimum) was 3 days. The “INFECT. PROPHYLAXIS, total treatment TIME (remission), Maximum” value (Infection Prophylaxis; maximum) was 13 days, the “INFECT. PROPHYLAXIS, total treatment TIME (remission), Mean” value (Infection Prophylaxis; mean) was 7.5 days and the “INFECT. PROPHYLAXIS, total treatment TIME (remission), Minimum” value (Infection Prophylaxis; minimum) was 3 days. The “GANGRENE, total treatment TIME (remission), Maximum” value (Gangrene; maximum) was 10 days, the “GANGRENE, total treatment TIME (remission), Mean” value (Gangrene; mean) was 5.0 days and the “GANGRENE, total treatment TIME (remission), Minimum” value (Gangrene; minimum) was 2 days. For the same molecule, the “PARODONTITIS, total treatment TIME (remission), Maximum” value (Parodontitis marginalis; maximum) was 14 days, the “PARODONTITIS, total treatment TIME (remission), Mean” value (Parodontitis marginalis; mean) was 5.1 days and the “PARODONTITIS, total treatment TIME (remission), Minimum” value (Parodontitis marginalis; minimum) was 2 days. The “PERICORONITIS, total treatment TIME (remission), Maximum” value (Pericoronitis; maximum) was 12 days, the “PERICORONITIS, total treatment TIME (remission), Mean” value (Pericoronitis; mean) was 5.1 days and the “PERICORONITIS, total treatment TIME (remission), Minimum” value (Pericoronitis; minimum) was 2 days. For the same molecule, the “ABSCESS, total treatment TIME (remission), Maximum” value (Abscess; maximum) was 13 days, the “ABSCESS, total treatment TIME (remission), Mean” value (Abscess; mean) was 5.5 days and the “ABSCESS, total treatment TIME (remission), Minimum” value (Abscess; minimum) was 2 days.
For Neomycin, the allergy rate [3] is given as 15-30%.
